From patent publication US10175230B2, “Use of biomarkers for evaluating the effectiveness of active ingredients” (LABORATOIRES EXPANSCIENCE, priority 2013, dated 2019)
Marks after values point to notes of the source that are not given here.

Key:
hyaluronic acid = test: Production of hyaluronic acid by keratinocytes, ELISA of supernatants; format: cell-based, human; settings: 10^−7 M, 24 hours, positive reference
Experimental: Normal human epidermal keratinocytes were incubated in the presence of 0.005% and 0.05% avocado perseose or 10^-7 M retinoic acid (all-trans-retinoic acid; Sigma), positive reference.
After 24 hours of incubation, hyaluronic acid produced by the keratinocytes was assayed in the cultured supernatants with an ELISA (Tebu). The quantity of hyaluronic acid measured was related to the number of living cells estimated by means of a neutral red assay.

PAD1 = test: Gene expression of peptidylarginine deiminase (PAD1) by RT-PCR; format: cell-based, human; settings: 10^−7 M, 48 hours, positive reference
Experimental: Normal human epidermal keratinocytes, cultured in differentiation-inducing medium (supplemented with Ca++), were incubated for 48 hours in the presence of 0.005% and 0.05% avocado perseose or 10^-7M vitamin D3 (1α,25-dihydroxyvitamin D3; Sigma), positive reference.
At the conclusion of the treatment, the RNA were extracted and the gene expression of PAD1 was evaluated by RT-PCR; the reference gene GAPDH was used to normalize the results.

[1] = test system: Ehrlich ascites carcinoma tumor cells; settings: perseitol associated with a potassium ion; Shibuya et al. 1999; cited from earlier work

## CC1=C(/C=C/C(C)=C/C=C/C(C)=C/C(=O)O)C(C)(C)CCC1 [Retinoic acid, all-trans-retinoic acid]
Hyaluronic acid
  Hyaluronic acid (ng/ml/living cells): 544.024 ± 34.026 ng/ml/living cells
  Increase of hyaluronic acid produced versus control cells: +119% ***

## C=C1/C(=C\C=C2/CCC[C@]3(C)[C@@H]([C@H](C)CCCC(C)(C)O)CC[C@@H]23)C[C@@H](O)C[C@@H]1O [Vitamin D3, 1α,25-dihydroxyvitamin D3]
PAD1
  PAD1 (Relative Quantity normalized by GAPDH): 2.66
  Stimulation of PAD1 gene expression versus control cells: +166% **

## OCC(O)C(O)C(O)C(O)C(O)CO (centres unmarked) [perseitol, Perseitol]
[1]
  Incorporation of 3H-leucine: inhibits
